These are literature values, as cited in patent US6534285B1 (priority 1984, dated 2003).

This data set addresses AIDS reverse transcriptase (Human immunodeficiency virus type 1 group M subtype B, UniProt P04585). Particulars: reference 53.

SMILES strings stand for the structures.

For `Cc1ccc(C(=O)Nc2ccc(S(=O)(=O)O)c3cc(S(=O)(=O)O)cc(S(=O)(=O)O)c23)cc1NC(=O)c1cccc(NC(=O)Nc2cccc(C(=O)Nc3cc(C(=O)Nc4ccc(S(=O)(=O)O)c5cc(S(=O)(=O)O)cc(S(=O)(=O)O)c45)ccc3C)c2)c1` [Suramin], the “inhibition of AIDS reverse transcriptase” value is listed as “known inhibitor”.
